Measured values as given in ChEMBL document CHEMBL1955862, “Novel N'-benzylidene benzofuran-3-carbohydrazide derivatives as antitubercular and antifungal agents” (2012).
Values after ≈ are worked out from the molar mass of the structure shown.

What was measured:
Candida albicans = assay: Antifungal activity against Candida albicans; assay type: functional
[1] = tested on: Mycobacterium tuberculosis; assay: Antituberculosis activity against Mycobacterium tuberculosis H37Rv by REMA method; assay type: functional

O=C(N/N=C/c1ccccc1)c1coc2ccccc12
MIC (Candida albicans): > 250 µg/mL | MIC [1]: 2 µg/mL (≈ 7.57 µM)

COc1ccc(/C=N/NC(=O)c2coc3ccccc23)c(OC)c1
MIC (Candida albicans): > 250 µg/mL | MIC [1]: 128 µg/mL (≈ 395 µM)

O=C(N/N=C/c1ccc(O)cc1)c1coc2ccccc12
MIC (Candida albicans): > 250 µg/mL | MIC [1]: 64 µg/mL (≈ 228 µM)

O=C(N/N=C/c1ccccc1O)c1coc2ccccc12
MIC (Candida albicans): > 250 µg/mL | MIC [1]: 64 µg/mL (≈ 228 µM)

O=C(N/N=C/c1ccc(Cl)cc1)c1coc2ccccc12
MIC (Candida albicans): > 250 µg/mL | MIC [1]: 128 µg/mL (≈ 428 µM)

Cc1ccc(/C=N/NC(=O)c2coc3ccccc23)cc1
MIC (Candida albicans): > 250 µg/mL | MIC [1]: 128 µg/mL (≈ 460 µM)

O=C(N/N=C/c1ccc([N+](=O)[O-])cc1)c1coc2ccccc12
MIC (Candida albicans): > 250 µg/mL | MIC [1]: 128 µg/mL (≈ 414 µM)

O=C(N/N=C/c1cc(Cl)cc(Cl)c1O)c1coc2ccccc12
MIC (Candida albicans): 31.2 µg/mL (≈ 89.5 µM) | MIC [1]: 128 µg/mL (≈ 367 µM)

O=C(N/N=C/c1cccc2ccccc12)c1coc2ccccc12
MIC (Candida albicans): 125 µg/mL (≈ 398 µM) | MIC [1]: 128 µg/mL (≈ 407 µM)

O=C(N/N=C/c1c(Cl)cccc1Cl)c1coc2ccccc12
MIC (Candida albicans): > 250 µg/mL | MIC [1]: 128 µg/mL (≈ 384 µM)

O=C(N/N=C/c1ccccc1)c1coc2c(Cl)cc(Cl)cc12
MIC (Candida albicans): > 250 µg/mL | MIC [1]: 2 µg/mL (≈ 6 µM)

COc1ccc(/C=N/NC(=O)c2coc3c(Cl)cc(Cl)cc23)c(OC)c1
MIC (Candida albicans): > 250 µg/mL | MIC [1]: 64 µg/mL (≈ 163 µM)

O=C(N/N=C/c1ccc(O)cc1)c1coc2c(Cl)cc(Cl)cc12
MIC (Candida albicans): > 250 µg/mL | MIC [1]: 128 µg/mL (≈ 367 µM)

O=C(N/N=C/c1ccccc1O)c1coc2c(Cl)cc(Cl)cc12
MIC (Candida albicans): > 250 µg/mL | MIC [1]: 32 µg/mL (≈ 91.6 µM)

O=C(N/N=C/c1ccc(Cl)cc1)c1coc2c(Cl)cc(Cl)cc12
MIC (Candida albicans): > 250 µg/mL | MIC [1]: 128 µg/mL (≈ 348 µM)

Cc1ccc(/C=N/NC(=O)c2coc3c(Cl)cc(Cl)cc23)cc1
MIC (Candida albicans): < 15.6 µg/mL | MIC [1]: 128 µg/mL (≈ 369 µM)

O=C(N/N=C/c1ccc([N+](=O)[O-])cc1)c1coc2c(Cl)cc(Cl)cc12
MIC (Candida albicans): 125 µg/mL (≈ 331 µM) | MIC [1]: 128 µg/mL (≈ 338 µM)

O=C(N/N=C/c1cc(Cl)cc(Cl)c1O)c1coc2c(Cl)cc(Cl)cc12
MIC (Candida albicans): 250 µg/mL (≈ 598 µM) | MIC [1]: 128 µg/mL (≈ 306 µM)

O=C(N/N=C/c1cccc2ccccc12)c1coc2c(Cl)cc(Cl)cc12
MIC (Candida albicans): < 15.6 µg/mL | MIC [1]: 128 µg/mL (≈ 334 µM)

O=C(N/N=C/c1c(Cl)cccc1Cl)c1coc2c(Cl)cc(Cl)cc12
MIC (Candida albicans): 62.5 µg/mL (≈ 155 µM) | MIC [1]: 128 µg/mL (≈ 318 µM)

NNC(=O)c1ccncc1 [ISONIAZID]
MIC [1]: 0.25 µg/mL (≈ 1.82 µM)
